The assay has as its target T1, hmGluR1 receptor (Homo sapiens, UniProt Q13255).
T1 construct: expressed in transfected cells
As to the kind of experiment: IC50 determination: intracellular calcium mobilization (FLIPR) upon Quisqualate stimulation in CHO cells stably expressing hmGluR1. The class given is cell-based. The settings on record: against Quisqualate 1 μM (EC80). In a few lines: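 CHO cells stably expressing hmGluR1 were kept overnight in DMEM high glucose with GPT and 1 mM pyruvate, then loaded 2 h with Calcium 3 dye.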

Setting [1] is: FLIPR calcium mobilization, read-out: IC50 Class.
The mark [2] stands for this setting: class symbols, read-out: mGIuR 1 IC50.
[3] abbreviates: FLIPR calcium mobilization, read-out: mGluR1 IC50.

Where two headings read alike, the source gives them in different places.

For orientation: IC50 means the point on the concentration scale where inhibition reaches its midpoint.

T1 sequence (Q13255 19-1194): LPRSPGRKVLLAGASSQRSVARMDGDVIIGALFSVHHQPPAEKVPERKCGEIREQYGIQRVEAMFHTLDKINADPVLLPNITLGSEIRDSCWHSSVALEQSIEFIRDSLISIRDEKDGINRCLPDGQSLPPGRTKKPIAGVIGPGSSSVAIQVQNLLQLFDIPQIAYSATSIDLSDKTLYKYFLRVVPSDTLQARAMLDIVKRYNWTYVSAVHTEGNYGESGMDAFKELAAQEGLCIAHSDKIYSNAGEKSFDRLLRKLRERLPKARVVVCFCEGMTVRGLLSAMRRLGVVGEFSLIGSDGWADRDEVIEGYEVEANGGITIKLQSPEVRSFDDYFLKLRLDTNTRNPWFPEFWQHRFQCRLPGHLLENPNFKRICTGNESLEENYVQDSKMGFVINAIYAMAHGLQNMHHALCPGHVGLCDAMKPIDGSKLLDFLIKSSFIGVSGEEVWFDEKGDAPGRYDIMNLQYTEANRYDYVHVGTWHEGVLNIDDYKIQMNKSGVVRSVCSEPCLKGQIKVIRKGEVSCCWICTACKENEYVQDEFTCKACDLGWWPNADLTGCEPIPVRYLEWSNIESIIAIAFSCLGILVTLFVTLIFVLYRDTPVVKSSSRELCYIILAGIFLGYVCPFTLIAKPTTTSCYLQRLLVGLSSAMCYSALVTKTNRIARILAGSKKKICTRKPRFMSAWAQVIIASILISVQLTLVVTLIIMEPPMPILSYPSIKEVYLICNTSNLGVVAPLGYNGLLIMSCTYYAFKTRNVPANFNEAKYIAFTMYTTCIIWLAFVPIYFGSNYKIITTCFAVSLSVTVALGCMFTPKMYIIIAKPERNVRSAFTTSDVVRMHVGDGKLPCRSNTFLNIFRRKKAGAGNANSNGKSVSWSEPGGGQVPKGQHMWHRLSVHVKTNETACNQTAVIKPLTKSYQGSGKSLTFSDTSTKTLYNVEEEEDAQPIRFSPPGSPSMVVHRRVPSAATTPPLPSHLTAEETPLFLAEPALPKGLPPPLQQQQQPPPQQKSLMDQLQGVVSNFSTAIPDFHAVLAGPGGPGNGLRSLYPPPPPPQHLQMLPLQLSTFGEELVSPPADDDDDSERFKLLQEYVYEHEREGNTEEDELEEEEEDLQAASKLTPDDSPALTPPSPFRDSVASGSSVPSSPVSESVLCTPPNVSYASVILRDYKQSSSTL

With `CN(C)c1cccc2sc3c(=O)n(-c4ccccc4Cl)cnc3c12` [103G], the IC50 under setting [1] was more than 1000 nM. Turning to `CCCc1nc2c(sc3nccc(N(C)C)c32)c(=O)n1-c1ccc(OC)cc1` [116F], the IC50 under setting [2] fell in the range of 150 to 1000 nM. With `Cc1ccc(-n2cnc3c(sc4ncnc(Nc5ccccc5)c43)c2=O)cc1F` [95GB], the IC50 under setting [1] is more than 1000 nM. Still for that read-out and setting: for `Cc1ccc(-n2cnc3c(sc4ncc(C(N)=O)cc43)c2=O)cc1` [205C] the value was 150 to 1000 nM. Consider `CN(C)c1ccnc2sc3c(=O)n(-c4ccc(C(C)(C)C)cc4)cnc3c12` [7BB], for which the IC50 under setting [2] was more than 1000 nM. Take `COc1ccc(-c2c(C(C)=O)c(C)nc3sc4c(=O)n(-c5ccc(C)cc5)cnc4c23)cc1` [P-10]: the IC50 under setting [2] lay in the range of 150 to 1000 nM. Same read-out and setting: for `COc1ccc(-n2cnc3c(sc4nccc(Nc5ccccc5)c43)c2=O)cc1` [28G] the value was 150 to 1000 nM; for `COc1ccc(-c2c(C(C)=O)c(C)nc3sc4c(=O)n(-c5ccc(Cl)cc5)cnc4c23)cc1` [P-11], 150 to 1000 nM; for `CN(C)c1ccnc2sc3c(=O)n(Cc4ccc(Cl)cc4)cnc3c12` [7I], more than 1000 nM. Take `C=C(C)CNc1ncnc2sc3c(=O)n(-c4ccc(OC)cc4)cnc3c12` [95FT]: the IC50 under setting [1] is less than 50 nM.

For `CN(C)c1ccnc2sc3c(=O)n(C4CCCCC4)cnc3c12` [7Q], the IC50 is, setting by setting: under setting [3], 0.35 nM; under setting [2], less than 50 nM.

Consider `O=c1c2sc3nccc(NC4CC4)c3c2ncn1-c1ccc2c(c1)OCCO2` [28CK], for which the IC50 under setting [1] is less than 50 nM. Take `CNc1ccnc2sc3c(=O)n(-c4cccc(Br)c4)cnc3c12` [28CS]: the IC50 under setting [1] lay in the range of 50 to 150 nM.

In the case of `CN(C)c1ccnc2sc3c(=O)n(-c4ccc(OC(F)F)cc4)cnc3c12` [7Z], the IC50 under setting [2] is less than 50 nM. In the case of `CN(C)c1ccnc2sc3c(=O)n(-c4ccc(CC#N)cc4)cnc3c12` [7BC], the IC50 under setting [2] was more than 1000 nM. Take `COCCCNc1ccnc2sc3c(=O)n(-c4ccc(OS(=O)(=O)C(F)(F)F)cc4)cnc3c12` [28HX]: the IC50 under setting [1] lay within 150 to 1000 nM. Consider `CCCN(CCC)c1ccnc2sc3c(=O)n(C4CCCCC4)cnc3c12` [28K], for which the IC50 under setting [2] is more than 1000 nM. As to `Cc1ccc(-n2cnc3c(sc4ncnc(N(C)C5CC5)c43)c2=O)cc1` [95DZ], the IC50 under setting [1] was less than 50 nM. With `CN(C)c1cc(C#N)nc2sc3c(=O)n(C4CCCCC4)cnc3c12` [compound 84], under setting [2], the IC50 was in the range of 50 to 150 nM. Turning to `COc1ccc(Nc2ncnc3sc4c(=O)n(C5CC5)cnc4c23)cc1` [95GL], the IC50 under setting [1] lay within 150 to 1000 nM. Same read-out and setting: the result for `COc1cc(-n2cnc3c(sc4nccc(NC5CC5)c43)c2=O)ccc1F` [131N] reads 150 to 1000 nM. With `Cc1ccc(-n2cnc3c(sc4nccc(NC5CC5)c43)c2=O)cc1F` [131L], the IC50 under setting [1] is less than 50 nM. Same read-out and setting: for `O=c1c2sc3nccc(CC4CC4)c3c2ncn1-c1ccc(Cl)cc1` [compound 179] the value was 150 to 1000 nM; for `CCCNc1ncnc2sc3c(=O)n(-c4ccc(C)cc4)cnc3c12` [95FG], less than 50 nM; for `O=c1c2sc3ncnc(NCC(F)(F)F)c3c2ncn1-c1ccc(Br)cc1` [95EE], less than 50 nM.

Turning to `C=C(C)CNc1ccnc2sc3c(=O)n(-c4ccc(OC)c(F)c4)cnc3c12` [28FE], under setting [1], the IC50 was in the range of 50 to 150 nM.

In the case of `Cc1ccc(-n2c(C(F)(F)F)nc3c(sc4nccc(N(C)C)c43)c2=O)cc1` [117A], the IC50 under setting [2] fell in the range of 150 to 1000 nM. `CNc1c(Cl)cnc2sc3c(=O)n(-c4ccc(Cl)cc4)cnc3c12` [compound 200]: under setting [1], the IC50 was less than 50 nM. Take `CCc1ccc(-n2cnc3c(sc4nccc(OC)c43)c2=O)cc1` [25G]: the IC50 under setting [1] was 150 to 1000 nM. `CCCn1cnc2c(sc3nccc(N(C)C)c32)c1=O` [15L]: under setting [2], the IC50 was more than 1000 nM. Still for that read-out and setting: for `C=CCOc1ccnc2sc3c(=O)n(-c4ccc(C)cc4)cnc3c12` [66D] the value was less than 50 nM; for `CN(C)c1ccnc2sc3c(=O)n(-c4ccc(Cl)cc4I)cnc3c12` [7N], 150 to 1000 nM; for `COc1ccc(-n2cnc3c(sc4cncc(N(C)C)c43)c2=O)cc1F` [37G], 150 to 1000 nM.

For `COc1ccnc2sc3c(=O)n(C4CCCCC4)cnc3c12` [25A], the IC50 under setting [2] was 150 to 1000 nM. Still for that read-out and setting: for `CN(C)c1ccnc2sc3c(=O)n(-c4ccc5c(c4)CC(=O)N5)cnc3c12` [7BE] the value was more than 1000 nM; for `Cc1ccc(-n2cnc3c(sc4nccc(N(C)C)c43)c2=O)cn1` [7DF], less than 50 nM. `Cc1ccc(-n2cnc3c(sc4nccc(NC5CCOCC5)c43)c2=O)cc1` [28DG]: the IC50 under setting [1] fell in the range of 150 to 1000 nM. As to `O=c1c2sc3ncnc(NC4CCC4)c3c2ncn1-c1ccc(Cl)cc1` [95DD], under setting [1], the IC50 is 150 to 1000 nM. As for `COc1cc(-n2cnc3c(sc4nccc(N(C)C)c43)c2=O)c(OC)cc1Cl` [7V], the IC50 under setting [2] was more than 1000 nM. As to `CCc1ccnc2sc3c(=O)n(-c4ccc(C)cc4)cnc3c12` [29G], under setting [1], the IC50 was less than 50 nM. As to `CN(C)c1ccnc2sc3c(=O)n(N)cnc3c12` [60H], the IC50 under setting [2] was more than 1000 nM.

`COc1ccc(-n2cnc3c(sc4nccc(NC5CC5)c43)c2=O)cc1F` [28HE]: the IC50 under setting [1] was less than 50 nM.

Consider `CC(C)(C)Nc1ccnc2sc3c(=O)n(-c4ccc(Cl)cc4)cnc3c12` [28EP], for which the 50% inhibitory concentration (IC50) under setting [1] was in the range of 150 to 1000 nM. The same measure, in the same setting: for `CNc1c(Br)cnc2sc3c(=O)n(-c4ccc(Cl)cc4)cnc3c12` [compound 188] the value was less than 50 nM.

`COc1cc(OC)cc(-n2cnc3c(sc4nccc(N(C)C)c43)c2=O)c1` [7AX]: the IC50 under setting [2] was less than 50 nM. On to `Cc1ccc(-n2cnc3c(sc4ncnc(NCCCCO)c43)c2=O)cc1` [95DN], for which the 50% inhibitory concentration (IC50) under setting [1] was less than 50 nM.

For the molecule `COc1ccc(-n2cnc3c(sc4nccc(N(C)CCO)c43)c2=O)cc1` [28HJ], the IC50 under setting [1] is less than 50 nM. Take `Cc1cc(N(C)C)c2c(n1)sc1c(=O)n(-c3ccc(Cl)cc3)cnc12` [7CM]: under setting [2], the IC50 was less than 50 nM. `CC(C)c1ccc(-n2cnc3c(sc4nccc(N(C)C)c43)c2=O)cc1` [7BA]: the IC50 under setting [2] was in the range of 150 to 1000 nM. Still for that read-out and setting: for `Cc1nc2ccc(-n3cnc4c(sc5nccc(N(C)C)c54)c3=O)cc2o1` [7BT] the value was more than 1000 nM. For the molecule `CN(C)c1ccnc2sc3c(=O)n(-c4ccncc4)cnc3c12` [28EE], the IC50 under setting [1] fell in the range of 150 to 1000 nM. Regarding `CN(C)c1ccnc2sc3c(=O)n(-c4ccc(OS(C)(=O)=O)cc4)cnc3c12` [compound 204], the IC50 under setting [1] lay within 50 to 150 nM. Same read-out and setting: for `Cc1ccc(-n2cnc3c(sc4ncnc(NCC5CCCO5)c43)c2=O)cc1` (stereo not drawn) [95FQ] the value was 150 to 1000 nM; for `CSCCNc1ncnc2sc3c(=O)n(-c4ccc(Cl)cc4)cnc3c12` [95FS], less than 50 nM. For `CN(C)c1ncnc2sc3c(=O)n(-c4ccc5ncsc5c4)cnc3c12` [95C], the 50% inhibitory concentration (IC50) under setting [2] is less than 50 nM. On to `COc1ccc(-n2cnc3c(sc4nc(N)cc(N(C)C)c43)c2=O)cc1` [59F], for which the IC50 under setting [1] was less than 50 nM. Still for that read-out and setting: the result for `Cc1nc(N)c2c(n1)sc1c(=O)n(-c3ccccc3)cnc12` [95EX] reads less than 50 nM. The same measure, in the same setting: the result for `O=c1c2sc3nccc(N4CC(O)C4)c3c2ncn1-c1ccc(Cl)cc1` [28DI] reads 150 to 1000 nM. On to `COc1ccccc1-n1cnc2c(sc3nc(N4CCOCC4)c4c(c32)CC(C)(C)OC4)c1=O` [P-5], for which the IC50 under setting [2] is 150 to 1000 nM. Consider `O=c1c2sc3nccc(N4CCCC4)c3c2ncn1-c1ccc(Cl)cc1` [28GF], for which the IC50 under setting [1] was less than 50 nM.

As for `Cc1ccc(-n2cnc3c(sc4nc(NS(C)(=O)=O)cc(N(C)C)c43)c2=O)cc1` [28FL], under setting [1], the IC50 lay in the range of 150 to 1000 nM.

`CS(=O)(=O)N1CCN(c2ccnc3sc4c(=O)n(C5CCCCC5)cnc4c23)CC1` [compound 63]: the IC50 under setting [2] is 150 to 1000 nM.

As to `CC(=O)Nc1cccc(-n2cnc3c(sc4nccc(N(C)C)c43)c2=O)c1` [7CI], under setting [2], the IC50 was in the range of 150 to 1000 nM. Consider `C=CCCOc1ccnc2sc3c(=O)n(-c4ccc(Br)cc4)cnc3c12` [66K], for which the IC50 under setting [1] was 150 to 1000 nM. For `CCN(C)c1ncnc2sc3c(=O)n(-c4cccnc4)cnc3c12` [95M], the IC50 under setting [2] fell in the range of 50 to 150 nM. For the molecule `CCNc1ncnc2sc3c(=O)n(-c4ccc5scnc5c4)cnc3c12` [95BJ], the IC50 under setting [1] was less than 50 nM.

On to `CSc1ccc(-n2cnc3c4c(N(C)C)ccnc4n(C)c3c2=O)cc1` [134C], for which, under setting [2], the IC50 is more than 1000 nM. Same read-out and setting: for `O=c1c2sc3nccc(NCc4ccccc4)c3c2ncn1C1CCCCC1` [72E] the value was more than 1000 nM. Same read-out and setting: the result for `CN(C)c1c(C(N)=O)cnc2sc3c(=O)n(C4CCCCC4)cnc3c12` [compound 49] reads more than 1000 nM. Same read-out and setting: for `CN(C)c1ccnc2sc3c(=O)n(Nc4ccccc4)cnc3c12` [60B] the value was less than 50 nM. With `CN(C)c1ncnc2sc3c(=O)n(-c4ccc5occc5c4)cnc3c12` [95AP], the IC50 was less than 50 nM under setting [1] and 1.6 nM under setting [3]. Take `CCN(C)c1ccnc2sc3c(=O)n(-c4ccc5c(c4)OCCO5)cnc3c12` [28CG]: under setting [1], the IC50 was less than 50 nM. On to `CN(C)c1cncc2sc3c(=O)n(N4CCCCC4)cnc3c12` [60L], for which the IC50 under setting [2] fell in the range of 150 to 1000 nM.

Turning to `C=C(C)CNc1ncnc2sc3c(=O)n(-c4ccc5scnc5c4)cnc3c12` [95FC], the IC50 under setting [1] was less than 50 nM. On to `Cc1ccc(-n2c(C)nc3c(sc4nccc(N(C)C)c43)c2=O)cc1` [113A], for which the IC50 under setting [2] is less than 50 nM. For the molecule `O=c1c2sc3nccc(NC4CC4)c3c2ncn1-c1cccc(Cl)c1` [28CB], under setting [1], the IC50 is 50 to 150 nM. Turning to `CN(C)c1ccnc2c1c1ncn(C3CCCCC3)c(=O)c1n2C` [134G], the IC50 under setting [2] was more than 1000 nM. Still for that read-out and setting: for `O=c1c2sc3nccc(NC4CCCCC4)c3c2ncn1-c1ccc(Cl)cc1` [28B] the value was more than 1000 nM. In the case of `CN(CC(O)CO)c1ccnc2sc3c(=O)n(-c4ccc(F)cc4)cnc3c12` (stereo not drawn) [28HR], the IC50 under setting [1] was 150 to 1000 nM. In the case of `Cc1ccc(-n2cnc3c(sc4nccc(NCCCO)c43)c2=O)cc1` [28CX], the IC50 under setting [1] was less than 50 nM.

As for `CC#CCNc1ccnc2sc3c(=O)n(-c4ccc(C)cc4)cnc3c12` [28AD], the IC50 under setting [2] is 50 to 150 nM.

In the case of `O=c1c2sc3nccc(NC4CC4)c3c2ncn1C1CCCCC1` [28S], the IC50 under setting [2] was less than 50 nM. Still for that read-out and setting: the result for `CCc1ccc(-n2cnc3c(sc4nccc(NC)c43)c2=O)cc1` [7CC] reads less than 50 nM. On to `CCN(C)c1ccnc2sc3c(=O)n(-c4ccc(OC)cc4C)cnc3c12` [28BV], for which, under setting [1], the IC50 is less than 50 nM.

`Cc1ccc(-n2cnc3c(sc4nccc(C(N)=O)c43)c2=O)cc1` [compound 76]: the IC50 under setting [2] is more than 1000 nM.

These data come from patent US7989464B2, “mGluR1 antagonists as therapeutic agents” (Schering Corporation, priority 2004, dated 2011).
